# Assay results as given in patent US9212180B2 (priority 2013, dated 2015).
# Biological target: T1, menin-MLL interaction (Homo sapiens, UniProt O00255)
# T1 sequence (O00255 1-610): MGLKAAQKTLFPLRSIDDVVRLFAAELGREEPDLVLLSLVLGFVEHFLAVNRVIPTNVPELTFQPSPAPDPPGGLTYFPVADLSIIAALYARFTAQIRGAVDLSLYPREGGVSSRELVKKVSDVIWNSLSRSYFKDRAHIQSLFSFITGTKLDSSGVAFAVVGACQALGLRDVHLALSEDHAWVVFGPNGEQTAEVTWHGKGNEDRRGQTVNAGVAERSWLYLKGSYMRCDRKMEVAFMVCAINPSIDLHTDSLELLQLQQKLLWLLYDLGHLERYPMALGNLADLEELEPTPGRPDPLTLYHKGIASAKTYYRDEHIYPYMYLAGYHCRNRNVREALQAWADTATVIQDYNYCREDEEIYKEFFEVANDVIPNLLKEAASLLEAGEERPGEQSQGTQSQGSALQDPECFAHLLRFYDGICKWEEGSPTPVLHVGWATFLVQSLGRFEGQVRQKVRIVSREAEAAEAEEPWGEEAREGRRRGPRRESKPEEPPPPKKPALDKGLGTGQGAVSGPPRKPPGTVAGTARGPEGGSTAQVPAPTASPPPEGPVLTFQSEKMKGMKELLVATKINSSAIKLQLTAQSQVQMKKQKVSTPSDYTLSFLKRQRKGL
# Test: biochemical
# Description: Fluorescence Polarization Assay.
# Compounds that inhibit the interaction decrease the fluorescence anisotropy which is being used as a read-out for compound screening and for IC50 determination. For validation of the FP assay, a control competition experiment with unlabeled MLL peptide (no fluorescein attached) was performed.
# 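Further: fluorescence polarization competition assay, inhibitors lower the fluorescence anisotropy signal, IC50 taken from this drop.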
row,Compound,IC50 [µM]
1,OC(c1ccccc1)(c1ccccc1)C1CCN(CCCOc2ccc(C(F)(F)F)cc2)CC1 [Compound B3],52
2,OC(c1ccccc1)(c1ccccc1)C1CCN(CCCOc2ccc(OC(F)(F)F)cc2)CC1 [Compound B4],98
3,OC(c1ccccc1)(c1ccccc1)C1CCN(CCCOc2ccc(Cl)cc2)CC1 [Compound B5],96
4,N#Cc1ccc(OCCCN2CCC(C(O)(c3ccccc3)c3ccccc3)CC2)cc1F [Compound B6],26.5
5,"OC(c1ccccc1)(c1ccccc1)C1CCN(CCCOc2ccc(-n3ccnn3)cc2)CC1 [Compound B10, (1-(3-(4-(1H-1,2,3-triazol-1-yl)phenoxy)propyl)piperidin-4-yl)diphenylmethanol]",29
6,N#Cc1ccc(OCCCN2CCC(C(O)(c3ccccc3)c3ccc(F)cc3)CC2)cc1 (stereo not drawn) [Compound B13],77.5
7,[N-]=[N+]=Nc1ccc(OCCCN2CCC(C(O)(c3ccccc3)c3ccccc3)CC2)cc1 [Compound B14],58
8,COC(=O)c1ccc(OCCCN2CCC(C(O)(c3ccccc3)c3ccccc3)CC2)cc1 [Compound B16],86
9,N#Cc1ccc(OCCCN2CCC(C(O)(c3ccccc3)C(F)(F)F)CC2)cc1 (stereo not drawn) [Compound B23],31
10,NS(=O)(=O)c1ccc(OCCCN2CCC(C(O)(c3ccccc3)c3ccccc3)CC2)cc1 [Compound B24],14.3
11,CS(=O)(=O)NCc1ccc(OCCCN2CCC(C(O)(c3ccccc3)c3ccccc3)CC2)cc1 [Compound B25],40
12,O=C(c1ccc(OCCCN2CCC(C(O)(c3ccccc3)C3CCCC3)CC2)cc1)C1CCCC1 (stereo not drawn) [Compound B26],3.95
13,NCc1ccc(OCCCN2CCC([C@](O)(c3ccccc3)C3CCCC3)CC2)cc1 [Compound B27],13.9
14,NCc1ccc(OCCCN2CCC([C@@](O)(c3ccccc3)C3CCCC3)CC2)cc1 [Compound B28],13.1
15,Oc1ccccc1-c1ccc(OCCCN2CCC(C(O)(c3ccccc3)c3ccccc3)CC2)cc1 [Compound B29],8.3
16,CN(C)S(=O)(=O)c1ccc(OCCCN2CCC(C(O)(c3ccccc3)c3ccccc3)CC2)cc1 [Compound B30],40
17,N#Cc1ccc(OCCCN2CCC(C(O)(C3CCCC3)C3CCCC3)CC2)cc1 [Compound B31],1.4
18,N#Cc1ccc(OCCCN2CCC(C(O)(C3=CCCC3)c3ccccc3)CC2)cc1 (stereo not drawn) [Compound B32],2.08
19,CS(=O)(=O)c1ccc(OCCCN2CCC(C(O)(c3ccccc3)c3ccccc3)CC2)cc1 [Compound B33],58.5
20,NCc1ccc(OCCCN2CCC(C(O)(C3=CCCC3)c3ccccc3)CC2)cc1 (stereo not drawn) [Compound B34],13.9
21,"OC(c1ccccc1)(c1ccccc1)C1CCN(CCCOc2ccc(-c3ccncc3)cc2)CC1 [Compound B35, Diphenyl(1-(3-(4-(pyridin-4-yl)phenoxy)propyl)piperidin-4-yl)methanol]",30.6
22,OC(c1ccccc1)(c1ccccc1)C1CCN(CCCOc2ccc(-c3cccnc3)cc2)CC1 [Compound B36],22.6
23,OC(c1ccccc1)(c1ccccc1)C1CCN(CCCOc2ccncc2)CC1 [Compound B37],25
24,CC(=O)NCc1ccc(OCCCN2CCC(C(O)(c3ccccc3)c3ccccc3)CC2)cc1 [Compound B38],20.7
25,OC(c1ccccc1)(c1ccccc1)C1CCN(CCCOc2ccc(-c3cncnc3)cc2)CC1 [Compound B39],83
26,N#CCc1ccc(OCCCN2CCC(C(O)(c3ccccc3)c3ccccc3)CC2)cc1 [Compound B40],17.4

row,Compound,IC50 [µM]
1,N#Cc1ccc(OC[C@H](O)CN2CCC(C(O)(c3ccccc3)C3CCCC3)CC2)cc1 (stereo partly drawn) [Compound B41],1.15
2,N#Cc1ccc(NCCCN2CCC(C(O)(c3ccccc3)c3ccccc3)CC2)cc1 [Compound B42],9.56
3,N#Cc1ccc(OC[C@@H](O)CN2CCC(C(O)(c3ccccc3)C3CCCC3)CC2)cc1 (stereo partly drawn) [Compound B43],0.948
4,CS(=O)(=O)c1ccc(OC[C@@H](O)CN2CCC(C(O)(c3ccccc3)c3ccccc3)CC2)cc1 [Compound B45],21
5,Cc1ccc(OC[C@@H](O)CN2CCC(C(O)(c3ccccc3)c3ccccc3)CC2)cc1 [Compound B46],100
6,O[C@H](COc1ccc(Cl)cc1)CN1CCC(C(O)(c2ccccc2)c2ccccc2)CC1 [Compound B47],40
7,O[C@H](COc1ccc(OC(F)(F)F)cc1)CN1CCC(C(O)(c2ccccc2)c2ccccc2)CC1 [Compound B48],31
8,CC(COc1ccc(C#N)c(F)c1)CN1CCC(C(O)(c2ccccc2)c2ccccc2)CC1 (stereo not drawn) [Compound B49],70.8
9,N#Cc1ccc(OC[C@@H](O)CN2CCC(C(O)(c3ccccc3)c3ccccc3)CC2)c(F)c1 [Compound B50],40
10,N#Cc1ccc(OC[C@@H](O)CN2CCC(C(O)(c3ccccc3)c3ccccc3)CC2)cc1F [Compound B51],15
11,CC(CCN1CCC(C(O)(c2ccccc2)c2ccccc2)CC1)Oc1ccc([N+](=O)[O-])cc1Cl (stereo not drawn) [Compound B52],55
12,CCOC(c1ccccc1)(c1ccccc1)C1CCN(CCCOc2ccc(C#N)cc2)CC1 [Compound B54],5.3
13,COC(c1ccccc1)(c1ccccc1)C1CCN(CCCOc2ccc(C#N)cc2)CC1 [Compound B55],5.3
14,CN(C)CCOC(c1ccccc1)(c1ccccc1)C1CCN(CCCOc2ccc(C#N)cc2)CC1 [Compound B56],4.2
15,COc1ccc(C(O)(C2CCCC2)C2CCN(CCCOc3ccc(C#N)cc3)CC2)cn1 (stereo not drawn) [Compound B57],75
16,N#Cc1ccc(OCCCN2CCC(C(O)(Cc3ccccc3)C3=CCCC3)CC2)cc1 (stereo not drawn) [Compound B59],11.3
17,N#Cc1ccc(OCCCN2CCC(C(O)(c3ccccc3)C3CCCC3)CC2)cn1 (stereo not drawn) [Compound B61],8.94
18,COC(c1ccccc1)(C1CCCC1)C1CCN(CCCOc2ccc(C#N)cc2)CC1 (stereo not drawn) [Compound B62],0.743
19,N#Cc1ccc(OCCCN2CCC(C(O)(C3CCCC3)C3CCCCN3)CC2)cc1 (stereo not drawn) [Compound B63],28
20,N#Cc1ccc(OCCCN2CCC(C(O)(c3ccccn3)C3CCCC3)CC2)cn1 (stereo not drawn) [Compound B64],4.05
21,COc1cccc(C(O)(C2CCCC2)C2CCN(CCCOc3ccc(C#N)cc3)CC2)c1 (stereo not drawn) [Compound B68],1.1
22,N#Cc1ccc(OCCCN2CCC(C(O)(c3cc(F)cc(F)c3)c3ccccn3)CC2)cc1 (stereo not drawn) [Compound B81],0.9
23,NS(=O)(=O)c1ccc(OCCCN2CCC(C(O)(c3cccc(F)c3)c3nccs3)CC2)cc1 (stereo not drawn) [Compound B82],0.354
24,N#Cc1ccc(OCCCN2CCC(C(O)(c3cccc(F)c3)c3nccs3)CC2)cc1 (stereo not drawn) [Compound B83],0.407
25,"N#Cc1ccc(OCC(O)CN2CCC(C(O)(c3cccc(F)c3)c3ccccn3)CC2)cc1 (stereo not drawn) [Compound B86, 4-(3-(4-((3-Fluorophenyl)(hydroxy)(pyridin-2-yl)methyl)piperidin-1-yl)-2-hydroxypropoxy)benzonitrile]",0.222
